Assay results reported in patent US11458123B2 (Arvinas, Inc., priority 2016, dated 2022).

test system: tau protein; assay: Tau protein in vitro degradation assay (Western blot, Tau-13 antibody); type: cell-based, human; conditions: SK-N-SH cells; 72 hours of incubation; tested at 1000 nM, 300 nM and 100 nM
Protocol: Tau Protein In Vitro Degradation Assay
To determine effect of PROTACs on tau protein degradation SK-N-SH cells were seeded in a 24-well tissue culture-treated plate for at least 18-hours prior to compound addition. Tau PROTACs were evaluated for tau degradation by lysing the cells in lysis buffer with protease inhibitors following a 72-hour incubation with tau PROTACs at 1000 nM, 300 nM and 100 nM for Table 1 and 300 nM, 100 nM, 33 nM and 11 nM for Table 2. Cell lysates were run on standard SDS-PAGE gels, and tau levels were detected by Western blotting using Tau-13 antibody from Abcam (Cambridge, UK) that binds to all forms of human tau.

Structure (SMILES)	Activity* (highest amount of degradation observed at any dosage, as tau protein remaining)
Cc1ncoc1-c1ccc(CNC(=O)[C@@H]2C[C@@H](O)CN2C(=O)[C@@H](NC(=O)COCCOCCOCCOCC(=O)N2CCN(c3ccn4c(n3)nc3ccccc34)CC2)C(C)(C)C)cc1 [Compound 14, (2S,4R)-1-((S)-17-(4-(benzo[4,5]imidazo[1,2-a]pyrimidin-2-yl)piperazin-1-yl)-2-(tert-butyl)-4,17-dioxo-6,9,12,15-tetraoxa-3-azaheptadecanoyl)-4-hydroxy-N-(4-(4-methyloxazol-5-yl)benzyl)pyrrolidine-2-carboxamide]	C (>80% tau protein remaining after 72 hours of incubation with the test compound)
Cc1ncsc1-c1ccc([C@H](C)NC(=O)[C@@H]2C[C@@H](O)CN2C(=O)[C@@H](NC(=O)COCCOCCOCCN2CCN(c3ccn4c(n3)nc3ccccc34)CC2)C(C)(C)C)cc1 [Compound 15, (2S,4R)-1-((S)-14-(4-(benzo[4,5]imidazo[1,2-a]pyrimidin-2-yl)piperazin-1-yl)-2-(tert-butyl)-4-oxo-6,9,12-trioxa-3-azatetradecanoyl)-4-hydroxy-N—((S)-1-(4-(4-methylthiazol-5-yl)phenyl)ethyl)pyrrolidine-2-carboxamide]	C (>80% tau protein remaining after 72 hours of incubation with the test compound)
Cc1ncsc1-c1ccc([C@H](C)NC(=O)[C@@H]2C[C@@H](O)CN2C(=O)[C@@H](NC(=O)COCCOCCOCCOCCN2CCN(c3ccn4c(n3)nc3ccccc34)CC2)C(C)(C)C)cc1 [Compound 16, (2S,4R)-1-((S)-17-(4-(benzo[4,5]imidazo[1,2-a]pyrimidin-2-yl)piperazin-1-yl)-2-(tert-butyl)-4-oxo-6,9,12,15-tetraoxa-3-azaheptadecanoyl)-4-hydroxy-N—((S)-1-(4-(4-methylthiazol-5-yl)phenyl)ethyl)pyrrolidine-2-carboxamide]	C (>80% tau protein remaining after 72 hours of incubation with the test compound)
Cc1ncsc1-c1ccc([C@H](C)NC(=O)[C@@H]2C[C@@H](O)CN2C(=O)[C@@H](NC(=O)COCCOCCOCC(=O)N2CCN(c3ccn4c(n3)nc3ccccc34)CC2)C(C)(C)C)cc1 [Compound 17, (2S,4R)-1-((S)-14-(4-(benzo[4,5]imidazo[1,2-a]pyrimidin-2-yl)piperazin-1-yl)-2-(tert-butyl)-4,14-dioxo-6,9,12-trioxa-3-azatetradecanoyl)-4-hydroxy-N—((S)-1-(4-(4-methylthiazol-5-yl)phenyl)ethyl)pyrrolidine-2-carboxamide]	C (>80% tau protein remaining after 72 hours of incubation with the test compound)
Cc1ncsc1-c1ccc([C@H](C)NC(=O)[C@@H]2C[C@@H](O)CN2C(=O)[C@@H](NC(=O)COCCOCCOCCOCC(=O)N2CCN(c3ccn4c(n3)nc3ccccc34)CC2)C(C)(C)C)cc1 [Compound 18, (2S,4R)-1-((S)-17-(4-(benzo[4,5]imidazo[1,2-a]pyrimidin-2-yl)piperazin-1-yl)-2-(tert-butyl)-4,17-dioxo-6,9,12,15-tetraoxa-3-azaheptadecanoyl)-4-hydroxy-N—((S)-1-(4-(4-methylthiazol-5-yl)phenyl)ethyl)pyrrolidine-2-carboxamide]	C (>80% tau protein remaining after 72 hours of incubation with the test compound)
Cc1ncoc1-c1ccc([C@H](C)NC(=O)[C@@H]2C[C@@H](O)CN2C(=O)[C@@H](NC(=O)COCCOCCOCCN2CCN(c3ccn4c(n3)nc3ccccc34)CC2)C(C)(C)C)cc1 [Compound 19, (2S,4R)-1-((S)-14-(4-(benzo[4,5]imidazo[1,2-a]pyrimidin-2-yl)piperazin-1-yl)-2-(tert-butyl)-4-oxo-6,9,12-trioxa-3-azatetradecanoyl)-4-hydroxy-N—((S)-1-(4-(4-methyloxazol-5-yl)phenyl)ethyl)pyrrolidine-2-carboxamide]	C (>80% tau protein remaining after 72 hours of incubation with the test compound)
Cc1ncoc1-c1ccc([C@H](C)NC(=O)[C@@H]2C[C@@H](O)CN2C(=O)[C@@H](NC(=O)COCCOCCOCCOCCN2CCN(c3ccn4c(n3)nc3ccccc34)CC2)C(C)(C)C)cc1 [Compound 20, (2S,4R)-1-((S)-17-(4-(benzo[4,5]imidazo[1,2-a]pyrimidin-2-yl)piperazin-1-yl)-2-(tert-butyl)-4-oxo-6,9,12,15-tetraoxa-3-azaheptadecanoyl)-4-hydroxy-N—((S)-1-(4-(4-methyloxazol-5-yl)phenyl)ethyl)pyrrolidine-2-carboxamide]	C (>80% tau protein remaining after 72 hours of incubation with the test compound)
Cc1ncoc1-c1ccc([C@H](C)NC(=O)[C@@H]2C[C@@H](O)CN2C(=O)[C@@H](NC(=O)COCCOCCOCC(=O)N2CCN(c3ccn4c(n3)nc3ccccc34)CC2)C(C)(C)C)cc1 [Compound 21, (2S,4R)-1-((S)-14-(4-(benzo[4,5]imidazo[1,2-a]pyrimidin-2-yl)piperazin-1-yl)-2-(tert-butyl)-4,14-dioxo-6,9,12-trioxa-3-azatetadecanoyl)-4-hydroxy-N—((S)-1-(4-(4-methyloxazol-5-yl)phenyl)ethyl)pyrrolidine-2-carboxamide]	C (>80% tau protein remaining after 72 hours of incubation with the test compound)
Cc1ncoc1-c1ccc([C@H](C)NC(=O)[C@@H]2C[C@@H](O)CN2C(=O)[C@@H](NC(=O)COCCOCCOCCOCC(=O)N2CCN(c3ccn4c(n3)nc3ccccc34)CC2)C(C)(C)C)cc1 [Compound 22, (2S,4R)-1-((S)-17-(4-(benzo[4,5]imidazo[1,2-a]pyrimidin-2-yl)piperazin-1-yl)-2-(tert-butyl)-4,17-dioxo-6,9,12,15-tetraoxa-3-azaheptadecanoyl)-4-hydroxy-N—((S)-1-(4-(4-methyloxazol-5-yl)phenyl)ethyl)pyrrolidine-2-carboxamide]	C (>80% tau protein remaining after 72 hours of incubation with the test compound)
Cc1ncsc1-c1ccc(CNC(=O)[C@@H]2C[C@@H](O)CN2C(=O)[C@@H](NC(=O)COCCOCCOCCOCCN2CCN(c3ccn4c(n3)nc3ccccc34)CC2)C(C)(C)C)cc1 [Compound 23, (2S,4R)-1-((5)-17-(4-(benzo[4,5]imidazo[1,2-a]pyrimidin-2-yl)piperazin-1-yl)-2-(tert-butyl)-4-oxo-6,9,12,15-tetraoxa-3-azaheptadecanoyl)-4-hydroxy-N-(4-(4-methylthiazol-5-yl)benzyl)pyrrolidine-2-carboxamide]	C (>80% tau protein remaining after 72 hours of incubation with the test compound)
Cc1ncsc1-c1ccc(CNC(=O)[C@@H]2C[C@@H](O)CN2C(=O)[C@@H](NC(=O)COCCOCCOCCOCC(=O)N2CCN(c3ccn4c(n3)nc3ccccc34)CC2)C(C)(C)C)cc1 [Compound 24, (2S,4R)-1-((5)-17-(4-(benzo[4,5]imidazo[1,2-a]pyrimidin-2-yl)piperazin-1-yl)-2-(tert-butyl)-4,17-dioxo-6,9,12,15-tetraoxa-3-azaheptadecanoyl)-4-hydroxy-N-(4-(4-methylthiazol-5-yl)benzyl)pyrrolidine-2-carboxamide]	C (>80% tau protein remaining after 72 hours of incubation with the test compound)
O=C1CCC(N2C(=O)c3cccc(NCCOCCOCCOCCN4CCN(c5ccn6c(n5)nc5ccccc56)CC4)c3C2=O)C(=O)N1 (stereo not drawn) [Compound 25, 4-((2-(2-(2-(2-(4-(benzo[4,5]imidazo[1,2-a]pyrimidin-2-yl)piperazin-1-yl)ethoxy)ethoxy)ethoxy)ethyl)amino)-2-(2,6-dioxopiperidin-3-yl)isoindoline-1,3-dione]	C (>80% tau protein remaining after 72 hours of incubation with the test compound)
O=C1CCC(N2C(=O)c3cccc(NCCOCCOCCOCCOCCN4CCN(c5ccn6c(n5)nc5ccccc56)CC4)c3C2=O)C(=O)N1 (stereo not drawn) [Compound 26, 4-((14-(4-(benzo[4,5]imidazo[1,2-a]pyrimidin-2-yl)piperazin-1-yl)-3,6,9,12-tetraoxatetradecyl)amino)-2-(2,6-dioxopiperidin-3-yl)isoindoline-1,3-dione]	C (>80% tau protein remaining after 72 hours of incubation with the test compound)
Cc1ncsc1-c1ccc(CNC(=O)[C@@H]2C[C@@H](O)CN2C(=O)[C@@H](NC(=O)COCCOCCOc2ccc3nc(-c4ccc(N(C)C)cc4)ccc3c2)C(C)(C)C)cc1 [Compound 27, (2S,4R)-1-((S)-2-(2-(2-(2-(2-(4-(dimethylamino)phenyl)quinolin-6-yloxy)ethoxy)ethoxy)acetamido)-3,3-dimethylbutanoyl)-4-hydroxy-N-(4-(4-methylthiazol-5-yl)benzyl)pyrrolidine-2-carboxamide]	C (>80% tau protein remaining after 72 hours of incubation with the test compound)
Cc1ncsc1-c1ccc([C@H](C)NC(=O)[C@@H]2C[C@@H](O)CN2C(=O)[C@@H](NC(=O)COCCOCCOc2ccc3nc(-c4ccc(N(C)C)cc4)ccc3c2)C(C)(C)C)cc1 [Compound 28, (2S,4R)-1-((S)-2-(2-(2-(2-(2-(4-(dimethylamino)phenyl)quinolin-6-yloxy)ethoxy)ethoxy)acetamido)-3,3-dimethylbutanoyl)-4-hydroxy-N—((S)-1-(4-(4-methylthiazol-5-yl)phenyl)ethyl)pyrrolidine-2-carboxamide]	C (>80% tau protein remaining after 72 hours of incubation with the test compound)
